From patent publication US11590129B2, “Combination therapy with an antitumor alkaloid” (PHARMA MAR, S.A., priority 2010, dated 2023)
Read-outs that look alike come from different tables or passages of the source.

Tests used:
[1] = tested on: A549 human lung carcinoma cell line; test: MTT cytotoxicity assay in A549 cells: IC50 of single agents and combinations with PM01183; format: cell-based; settings: Homo sapiens
Protocol: (§1) Additional serial dilutions were prepared in serum-free culture medium to achieve a final 4× concentration. Aliquots of 50 μL of each diluted compound were added per well.
A549 was the human lung carcinoma cell line selected for this assay.
(§2) a. […] Briefly, cells were harvested and seeded in 96 well microtiter plates at a density of 5,000 cells in 150 μL of culture medium and incubated for 24 hours in drug-free medium before treatment with vehicle alone or test compounds for 72 h.
(§3) The cytotoxic effect was measured by the MTT reduction assay, in which 3-(4,5-Dimethylthiazol-2-yl)-2,5-diphenyltetrazolium bromide, a tetrazole, which is reduced to purple formazan in the mitochondria of living cells, was used. MTT (50 μL of 1 mg/mL stock solution) was added to the wells and incubated for 8 hours at 37° C. until formazan crystals were formed. After gently removing the culture medium, DMSO was added to dissolve the insoluble purple formazan product into a colored solution. […] Results were expressed as percentage of control cell growth.
(§4) b. In a second set of assays, A549 human tumor cells were incubated with PM01183 in combination with each of the agents mentioned above.
(§5) As a visual aid, response values were plotted on a scatter plot with dose ratios given on the x-axis and % response values on the y-axis. […] In cases where response values at the two endpoints were approximately equivalent, points lying above or below this predicted line of additivity could be interpreted as representing antagonistic or synergistic drug interaction, respectively.

[2] = tested on: PC-3 human prostate cancer cell line; test: cells; settings: Homo sapiens, PC-3, 72 h
Protocol: as §2, §3, §4, §5, §1
PC-3 was the human prostate adenocarcinome cell line selected for this assay.

[3] = tested on: HGC-27 human gastric carcinoma cell line; test: cells; settings: Homo sapiens, HGC-27, 72 h
Protocol: as §2, §3, §4, §5, §1
HGC-27 was the human gastric carcinoma cell line selected for this assay.

[4] = tested on: IGROV-1 human ovarian adenocarcinoma cell line; test: cells; settings: Homo sapiens, IGROV-1, 72 h
Protocol: as §2, §3, §4, §5, §1
IGROV-1 was the human ovarian adenocarcinoma cell line selected for this assay.

[5] = tested on: HepG2 human hepatocellular liver carcinoma cell line; test: MTT cytotoxicity assay in HepG2 cells: IC50 of single agents and combinations with PM01183; format: cell-based; settings: Homo sapiens
Protocol: as §2, §3, §4, §5, §1
HepG2 was the human hepatocellular liver carcinoma cell line selected for this assay.

[6] = tested on: MDA-MB-231 human breast adenocarcinoma cell line; test: cells; settings: Homo sapiens, MDA-MB-231, 72 h
Protocol: as §2, §3, §4, §5, §1

A2780 tumors = test: Human ovarian tumor xenografts (A2780) in athymic nude mice, tumor volume % T/C; format: in vivo
Protocol: Female athymic nude mice (Harlan Laboratories Models, S.L. (Barcelona, Spain) were utilized for all experiments. Animals were housed in individually ventilated cages, up to ten per cage in a 12-hour light-dark cycle at 21-23° C. and 40-60% humidity. The mice were allowed free access to irradiated standard rodent diet and sterilized water. Animals were acclimated for at least 5 days prior to tumor implantation with a tumor cell suspension.
The formula to calculate volume for a prolate ellipsoid was used to estimate tumor volume (mm^3) from 2-dimensional tumor measurements: Tumor volume (mm^3)=[L×W^2]÷2, where L is the length and it is the longest diameter in mm, and W is the width and it is the shortest diameter in mm of a tumor. Assuming unit density, volume was converted to weight (i.e., 1 mm^3=1 mg). Tumor volume and animal body weights were measured 2-3 times per week starting form the first day of treatment (Day 0).
PM01183 was provided in the form of vials of lyophilized PM01183 cake which was reconstituted with water for infusion to a concentration of 0.2 mg/mL. The PM01183 stock solution was further diluted in 5% glucose solution for injection to the dosing formulation concentrations. […] Vinorelbine was provided as a solution prepared by diluting the product with 0.9% saline solution.
Dose level groups were administered either as single agents or in combination.
Comparison of the median tumor volume in the treatment groups (T) to the median tumor volume in the control group (T/C×100%) was used for evaluation of the antitumor efficacy.
Day 9 for PM01183 and vinorelbine study) using the median-effect principle (Chou T. C. Pharmacol. Rev.

[7] = tested on: A673 human rhabdomyosarcoma cell line; test: cells; settings: Homo sapiens, A673, 72 h
Protocol: as §2, §3, §4, §5, §1
A673 was the human rhabdomyosarcoma cell line selected for this assay.

[8] = tested on: RXF-393 human kidney carcinoma cell line; test: cells; settings: Homo sapiens, RXF 393, 72 h
Protocol: as §2, §3, §4, §5, §1

[9] = tested on: U87-MG human glioblastoma cell line; test: cells; settings: Homo sapiens, U-87 MG, 72 h
Protocol: as §2, §3, §4, §5, §1
U87-MG was the human glioblastoma cell line selected for this assay.

[10] = paclitaxel 6.25 mg/kg iv days 0,7
[11] = paclitaxel 12.5 mg/kg iv days 0,7
[12] = paclitaxel 18.75 mg/kg iv days 0,7
[13] = paclitaxel 25 mg/kg iv days 0,7

With `CC(=O)O[C@H]1C(=O)[C@@]2(C)[C@H]([C@H](OC(=O)c3ccccc3)[C@]3(O)C[C@H](OC(=O)[C@H](O)[C@@H](NC(=O)c4ccccc4)c4ccccc4)C(C)=C1C3(C)C)[C@]1(OC(C)=O)CO[C@@H]1C[C@@H]2O` [Paclitaxel, paclitaxel] the IC50 ([1]; A549, 72 h) was 40 nM, the IC50 [2] was 90 nM and the IC50 [3] was 5 nM. For the same compound, the IC50 [4] was 95 nM, the IC50 ([5]; HepG2, 72 h) was 57 nM and the IC50 [6] was 8.5 nM. For the same compound, the “% T/C on day 0” value (A2780 tumors; [10]) was 94.3%, the “% T/C on day 3” value (A2780 tumors; [10]) was 60.2% and the “% T/C on day 5” value (A2780 tumors; [10]) was 79.7%. The “% T/C on day 7” value (A2780 tumors; [10]) was 81.3%, the “% T/C on day 10” value (A2780 tumors; [10]) was 59.2% and the “% T/C on day 0” value (A2780 tumors; [11]) was 96.2%. For the same compound, the “% T/C on day 3” value (A2780 tumors; [11]) was 62.5%, the “% T/C on day 5” value (A2780 tumors; [11]) was 73.9% and the “% T/C on day 7” value (A2780 tumors; [11]) was 62.5%. For the same compound, the “% T/C on day 10” value (A2780 tumors; [11]) was 50.8%, the “% T/C on day 0” value (A2780 tumors; [12]) was 95.0% and the “% T/C on day 3” value (A2780 tumors; [12]) was 60.4%. For the same compound, the “% T/C on day 7” value (A2780 tumors; [12]) was 41.5%, the “% T/C on day 10” value (A2780 tumors; [12]) was 31.1% and the “% T/C on day 0” value (A2780 tumors; [13]) was 95.3%. For the same compound, the “% T/C on day 3” value (A2780 tumors; [13]) was 49.3%, the “% T/C on day 7” value (A2780 tumors; [13]) was 34.0% and the “% T/C on day 10” value (A2780 tumors; [13]) was 19.8%.

For `CC[C@]1(O)C[C@H]2CN(CCc3c([nH]c4ccccc34)[C@@](C(=O)OC)(c3cc4c(cc3OC)N(C=O)[C@H]3[C@@](O)(C(=O)OC)[C@H](OC(C)=O)[C@]5(CC)C=CCN6CC[C@]43[C@@H]65)C2)C1` [Vincristine, vincristine], the IC50 ([1]; A549, 72 hours drug exposure, MTT, read-out: IC50) was 250 nM, the IC50 [7] was 8.6 nM and the IC50 [3] was 12.5 nM. For the same compound, the IC50 [4] was 379 nM, the IC50 ([5]; HepG2, 72 hours drug exposure, MTT, read-out: IC50) was 60 nM and the IC50 [6] was 50 nM. The IC50 [8] was 17.3 nM and the IC50 [9] was 100 nM.
